From ChEMBL document CHEMBL4665663, “Anti-atherosclerosis effect of HS donors based on nicotinic acid and chlorfibrate structures” (Bioorg Med Chem, 2019)
Activity calls are given as the source filed them. The calls are words filed in the database; no cut-off is given here.

Experiments:
WI-38 = experiment: Cytotoxicity against human WI38 cells assessed as reduction in cell viability after 48 hrs by MTT assay; assay type: cell-based; settings: WI-38, 48 h
RAW264.7 [1] = experiment: Cytotoxicity against mouse RAW264.7 cells assessed as reduction in cell viability after 48 hrs by MTT assay; assay type: cell-based; settings: RAW264.7, 48 h
HUVEC = experiment: Cytotoxicity against human HUVEC cells assessed as reduction in cell viability after 48 hrs by MTT assay; assay type: cell-based
H9c2 = experiment: Cytotoxicity against rat H9c2 cells assessed as reduction in cell viability after 48 hrs by MTT assay; assay type: cell-based; settings: H9c2, 48 h
[2] = Prodrug release in phosphate buffer containing L-cysteine assessed as H2S release by measuring H2S releasing half-life at 60 uM by methylene blue method; assay type: ADME
RAW264.7 [3] = experiment: Inhibition of macrophage foam cell formation in mouse RAW264.7 cells assessed as reduction in ox-LDL induced red lipid droplets formation at 10 uM preincubated for 10 mins followed by ox-LDL stimulation and measured after 24 hrs by oil red O staining based inverted microscopy analysis; assay type: functional
RAW264.7 [4] = experiment: Anti-inflammatory activity in mouse RAW264.7 cells assessed as decrease in ox-LDL induced inflammatory reaction by measuring increase in IL-10 production at 10 to 50 uM preincubated for 10 mins followed by ox-LDL stimulation and measured after 24 hrs; assay type: functional, cell-based; settings: dose microM 10-50, time 10.0 min
RAW264.7 [5] = experiment: Antioxidant activity in mouse RAW264.7 cells assessed as reduction in ox-LDL induced ROS accumulation at 10 uM preincubated for 10 mins followed by ox-LDL stimulation and measured after 24 hrs by DCFH-DA staining based fluorescence microscopic analysis; assay type: functional, cell-based
RAW264.7 [6] = experiment: Anti-atherosclerotic activity in mouse RAW264.7 cells assessed as decrease in ox-LDL induced intracellular lipid accumulation by measuring reduction in free cholesterol level at 10 to 50 uM preincubated for 10 mins followed by ox-LDL stimulation and measured after 24 hrs by colorimetric method; assay type: functional, cell-based; settings: dose microM 10-50, time 10.0 min
RAW264.7 [7] = experiment: Anti-inflammatory activity in mouse RAW264.7 cells assessed as decrease in ox-LDL induced inflammatory reaction by measuring decrease in TNF-alpha production at 10 to 50 uM preincubated for 10 mins followed by ox-LDL stimulation and measured after 24 hrs; assay type: functional, cell-based; settings: dose microM 10-50, time 10.0 min
RAW264.7 [8] = experiment: Anti-atherosclerotic activity in mouse RAW264.7 cells assessed as decrease in ox-LDL induced intracellular lipid accumulation by measuring reduction in total cholesterol level at 10 to 50 uM preincubated for 10 mins followed by ox-LDL stimulation and measured after 24 hrs by colorimetric method; assay type: functional, cell-based; settings: dose microM 10-50, time 10.0 min
RAW264.7 [9] = experiment: Antioxidant activity in mouse RAW264.7 cells assessed as reduction in ox-LDL induced oxidative stress by measuring decrease in MDA level at 10 to 50 uM preincubated for 10 mins followed by ox-LDL stimulation and measured after 24 hrs; assay type: functional, cell-based; settings: dose microM 10-50, time 10.0 min
RAW264.7 [10] = experiment: Antioxidant activity in mouse RAW264.7 cells assessed as reduction in ox-LDL induced oxidative stress by measuring increase in SOD level at 10 to 50 uM preincubated for 10 mins followed by ox-LDL stimulation and measured after 24 hrs; assay type: functional, cell-based; settings: dose microM 10-50, time 10.0 min

Row | t1/2 [2] | SMILES | IC50 (WI-38) | IC50 (RAW264.7 [1]) | IC50 (HUVEC) | IC50 (H9c2) | inhibition (RAW264.7 [3]) | Activity (RAW264.7 [4]) | Activity (RAW264.7 [5]) | Activity (RAW264.7 [6]) | Activity (RAW264.7 [7]) | Activity (RAW264.7 [8]) | Activity (RAW264.7 [9]) | Activity (RAW264.7 [10])
1 | 1.4 min | CC(C)(Oc1ccc(Cl)cc1)C(=O)NCCOC(=S)Nc1ccccc1 | > 800 µM | > 800 µM | 791 µM | > 800 µM | – | – | – | – | – | – | – | –
2 | – | O=C(O)c1cccnc1 | – | – | – | – | Active | Active | inactive | Active | Active | Active | inactive | inactive
3 | – | CCOC(=O)C(C)(C)Oc1ccc(Cl)cc1 | – | – | – | – | Active | Active | inactive | Active | Active | Active | inactive | inactive
4 | 2.1 min | NC(=S)c1ccc(OC(=O)c2cccnc2)cc1 | > 800 µM | > 800 µM | 683 µM | 754 µM | – | – | – | – | – | – | – | –
5 | 1.5 min | O=C(NCCOC(=S)Nc1ccc(F)cc1)c1cccnc1 | > 800 µM | > 800 µM | 692 µM | > 800 µM | – | – | – | – | – | – | – | –
6 | 4.2 min | CC(C)(Oc1ccc(Cl)cc1)C(=O)Oc1ccc(-c2cc(=S)ss2)cc1 | 764 µM | > 800 µM | 616 µM | 675 µM | – | – | – | – | – | – | – | –
7 | 5.6 min | CC(C)(Oc1ccc(Cl)cc1)C(=O)Oc1ccc(C(N)=S)cc1 | > 800 µM | > 800 µM | 755 µM | 797 µM | – | – | – | – | – | – | – | –
8 | 0.9 min | Cc1ccc(NC(=S)OCCNC(=O)c2cccnc2)cc1 | > 800 µM | > 800 µM | 567 µM | 726 µM | – | – | – | – | – | – | – | –
9 | 3.9 min | Cc1cnc(C(=O)Oc2ccc(C(N)=S)cc2)c[n+]1[O-] | > 800 µM | > 800 µM | 714 µM | 780 µM | – | – | – | – | – | – | – | –
10 | 0.8 min | COc1ccc(NC(=S)OCCNC(=O)c2cccnc2)cc1 | 781 µM | > 800 µM | 550 µM | 694 µM | – | – | – | – | – | – | – | –
